US20160115540A1, “PRODRUGS AND DRUGS” (Biogen MA Inc., priority 2013, published 2016)
Counter-ions that a name gives are not always drawn.

Test system: spleen
Experiment: Transcriptional profiling, chronic dosing, EAE mice: spleen
Type: in vivo
Details: for Number of differentially expressed genes identified: Spleen: EAE, Chronic Dosing
Description: 2011 March 134(Pt3): 678-92. […] FIG. 17 depicts exemplary immunophenotyping panels used to analyze various immune cell populations (e.g., T cells, T regulatory cells, NK cells, B cells, myeloid cells). […] Animals were exposed to CO2 and whole blood collected via cardiac puncture. Two 100 μl aliquots of whole blood were collected in 1.5 mL microcentrifuge tubes and snap frozen in liquid nitrogen. Peripheral (liver, spleen, kidney and jejunum) and CNS brain (cerebellum, hippocampus, striatum and cortex) tissues were harvested and snap frozen in liquid nitrogen, with special care taken to collect tissues of similar size and from the same location. All samples were stored at -80° C. until RNA extraction was conducted. For RNA preparation, frozen tissues were placed in 2 mL RNAse-free 96-well blocks with 1.5 mL QIAzol Lysis Reagent (QIAgen) and a 3.2 mm stainless steel bead (BioSpec Products, Bartlesville, Okla.). Tissues were disrupted for four cycles of 45 seconds in a Mini-Beadbeater (Biospec Products). RNA was extracted in chloroform and the aqueous phase was mixed with an equal volume of 70% ethanol. Extracted RNA was applied to RNeasy 96 plates and purified by the spin method according to the manufacturer's protocol (RNeasy 96 Universal Tissue Protocol, QIAgen, Hilden Germany). […] Washing and staining of the hybridized arrays were completed as described in the GeneChip Expression analysis technical manual for HT plate arrays using the Genechip® Array Station (Affymetrix, Santa Clara, Calif.) with modifications as described in […] et al. The processed GeneChip® plate arrays were scanned using GeneTitan scanner (Affymetrix, Santa Clara, Calif.). Affymetrix scans were subject to quality control (QC) measures. These tests included a visual inspection of the distribution of raw signal intensities and an assessment of RNA degradation, relative log expression (RLE), and normalized unscaled standard error (NUSE). All sample scans that passed these QC metrics were included in the analysis. All CEL files were subjected to GC-content-based Robust Multi-array Average (GCRMA) normalization (version 2.20.0) (Irizarry R A, et al. Nucleic Acids Res 2003; 31:e15; Li C, et al. Genome Biol 2001; 2:[…]0032). […] Stat Appl Genet Mol Biol 2004; 3:Article3). […] Springer Science+Business Media 2005).

## COC(=O)/C=C/C(=O)O [MMF, monomethyl fumarate]
90 mpk MMF-vs-Vehicle, 7 h after last dosing
  Number of differentially expressed genes identified: Spleen: 23
90 mpk MMF-vs-Vehicle, 12 h after last dosing
  Number of differentially expressed genes identified: Spleen: 9
spleen, 100MMF-vs-Veh, 7 h
  FC 1441413_PM_at (no gene symbol): 1.54
  FC 1451626_PM_x_at (no gene symbol): 1.55
  FC 2810037O22Rik (1428866_PM_at): −1.88
  FC 4930519L02Rik (1454269_PM_s_at): 1.78
  FC Aox1 (1419435_PM_at): 1.91
  FC Cacnb3 (1448656_PM_at): −1.58
  FC Figf /// LOC100047108 (1438953_PM_at): 1.57
  FC Gsta3 (1423436_PM_at): 1.74
  FC Gsta3 (1423437_PM_at): 1.61
  FC Higd1c /// Mettl7a1 /// Mettl7a2 1434150_PM_a_at: 1.57
  FC Kcnh1 (1435994_PM_at): −1.60
  FC Lmcd1 1424596_PM_s_at: −1.74
  FC Mmp16 (1437568_PM_at): −1.56
  FC Nqo1 (1423627_PM_at): 2.35
  FC Pdk4 (1417273_PM_at): 1.68
  FC Pir (1429001_PM_at): 2.67
  FC Socs3 (1416576_PM_at): −1.79
  FC Srxn1 (1419942_PM_at): 2.29
  FC Srxn1 (1426875_PM_s_at): 2.26
  FC Srxn1 (1451680_PM_at): 2.05
  FC Steap4 (1425829_PM_a_at): −1.91
  FC Steap4 (1460197_PM_a_at): −2.48
  FC Txnrd1 (1424486_PM_a_at): 1.69
spleen, 100MMF-vs-Veh, 12 h
  FC 2810037O22Rik (1428866_PM_at): −1.55
  FC Dbp (1418174_PM_at): −1.85
  FC Dbp (1438211_PM_s_at): −1.90
  FC Dclre1a (1432097_PM_a_at): 1.56
  FC Nqo1 (1423627_PM_at): 2.05
  FC Nr1d1 (1426464_PM_at): −1.76
  FC Nr1d2 (1416958_PM_at): −1.53
  FC Srxn1 (1419942_PM_at): 1.73
  FC Srxn1 (1426875_PM_s_at): 1.75

## COC(=O)/C=C/C(=O)OC [DMF, dimethyl fumarate]
100 mpk DMF-vs-90 mpk MMF, 7 h after last dosing
  Number of differentially expressed genes identified: Spleen: 3
100 mpk DMF-vs-90 mpk MMF, 12 h after last dosing
  Number of differentially expressed genes identified: Spleen: 4
100 mpk DMF-vs-Vehicle, 7 h after last dosing
  Number of differentially expressed genes identified: Spleen: 12
100 mpk DMF-vs-Vehicle, 12 h after last dosing
  Number of differentially expressed genes identified: Spleen: 7
spleen, 100DMF-vs-90MMF, 7 h
  FC Ear1 (1421802_PM_at): −3.57
  FC Epx (1449136_PM_at): −3.20
  FC Prg2 (1422873_PM_at): −2.10
spleen, 100DMF-vs-90MMF, 12 h
  FC Angptl4 (1417130_PM_s_at): 1.97
  FC Zbtb16 (1419874_PM_x_at): 1.95
  FC Zbtb16 (1442025_PM_a_at): 2.29
  FC Zbtb16 (1442026_PM_at): 2.36
spleen, 100DMF-vs-Veh, 7 h
  FC 4930519L02Rik (1454269_PM_s_at): 1.66
  FC Adamts4 (1455965_PM_at): −1.51
  FC Aox1 (1419435_PM_at): 1.88
  FC Gsta3 (1423436_PM_at): 2.02
  FC Gsta3 (1423437_PM_at): 1.94
  FC LOC677317 /// Me1 1416632_PM_at: 1.61
  FC Nqo1 (1423627_PM_at): 2.27
  FC Pir (1429001_PM_at): 2.74
  FC Srxn1 (1419942_PM_at): 2.31
  FC Srxn1 (1426875_PM_s_at): 2.29
  FC Srxn1 (1451680_PM_at): 2.14
  FC Steap4 (1425829_PM_a_at): −1.88
spleen, 100DMF-vs-Veh, 12 h
  FC Dbp (1418174_PM_at): −1.65
  FC Dbp (1438211_PM_s_at): −1.78
  FC Ighg (1424631_PM_a_at): −1.52
  FC Srxn1 (1419942_PM_at): 1.85
  FC Srxn1 (1426875_PM_s_at): 1.90
  FC Srxn1 (1451680_PM_at): 1.60
spleen, chronically dosed EAE mice, 12 h after final dosing
  Zbtb16 transcript signal, DMF-treated compared to MMF-treated animals: increased signal
